Laboratory results published in publication PMC12605013, “SAG1.3-derived Frizzled-targeting small-molecule compounds” (The Journal of Biological Chemistry, 2025).

Assays:
Nluc-FZD5 = biological target: T1, Nluc-FZD5 (Homo sapiens, UniProt Q13467); assay: BRET-based BODIPY-cyclopamine competition binding at Nluc-FZD5; settings: BODIPY-cyclopamine 200 nM; ΔFZD1-10 HEK293T cells; read-out: pIC50 (11) mean ± SEM, Nluc-FZD5 (converted)
T1 construct: expressed in transfected cells; host or cells: ΔFZD1–10 HEK293T cells
Method: After 24 h, cells were washed once with Hanks' balanced salt solution (HBSS), followed by the addition of 80 μl of HBSS. Next, 10 μl of the competitive ligand, that is, the tested SAG1.3 derivative (either in different concentrations for the concentration–response curves or at a final concentration of 10 μM for the first screens) and 10 μl of the fluorescent tracer BODIPY–cyclopamine (final concentration: 300 nM for the first screens, 200 nM for the concentration–response experiments) were added. All serial dilutions were prepared in HBSS. The cells were incubated for 90 min at 37 °C without additional CO2, after which 10 μl of luciferase substrate diluted in HBSS (furimazine; Promega, N1572, final dilution: 1:1000 for first screening) and coelenterazine h (Biosynth; final concentration: 5 μM for concentration–response experiments) were added to the cells. Following a 10 min incubation period in the dark, the measurement was started on a BMG Labtech ClarioStar or TECAN Spark multimode microplate reader, prewarmed to 37 °C. Nluc bioluminescence was detected between 460 and 490 nm (ClarioStar) or 460 and 500 nm (TECAN Spark). The emission of the fluorescent tracer was detected between 520 and 550 nm (ClarioStar) or between 520 and 560 nm (TECAN Spark). […]

[1] = system: HiBiT-FZD4, HiBiT-FZD7 or HiBiT-FZD8; assay: TOPFlash reporter gene assay, test for paralog selectivity; settings: 10 µM compound; 300 ng/mL WNT-3A
Method: The transfected cell suspension was then seeded (45,000 cells/well) into a PDL-coated, white opaque 96-well plate. One day after transfection, cells were washed once with HBSS, and 80 μl of serum-free DMEM containing 10 nM of the porcupine inhibitor C59 were added. […] All ligands/vehicle controls were diluted in serum-free DMEM containing 10 nM C59. One day after ligand stimulation, cells were washed once with HBSS, and the lysis was started using 1× Passive Lysis Buffer (Promega; catalog no.: E1910, 20 μl/well), after which the plate was shaken for 20 min at room temperature. Fluc and Rluc bioluminescence were then assessed using the Dual-Luciferase Assay System (Promega; catalog no.: E1910, 20 μl of both LARII [Luciferase Assay II reagent] and 1× Stop-and-Glo Reagent). Measurements were performed using a TECAN Spark multimode microplate reader.
For reporter gene assays, the TOPFlash ratio was defined as the ratio of β-catenin-dependent gene transcription (Fluc) over a constitutively expressed transfection control (Rluc). For all experiments, the calculated TOPFlash ratios were normalized to the respective vehicle conditions.
Experiments were performed in ΔFZD1-10 HEK293T cells transiently transfected with HiBiT-FZD4 (A), HiBiT-FZD7 (B) or HiBiT-FZD8 (C). Data represent mean values ± SEM from three independent experiments performed in triplicate. […]

HiBiT-FZD5 = biological target: T2, HiBiT-FZD5 (Homo sapiens, UniProt Q13467); assay: NanoBiT cell surface expression assay, HiBiT-FZD5; type: cell-based; settings: 10 μM, overnight exposure
T2 construct: expressed in transfected cells; host or cells: HEK293A cells
Method: Subsequently, 10 μl of either compound 11 or 26 (DD436001) was added at a final concentration of 10 μM. DMSO was added separately as a control. One day after compound or DMSO addition, cells were washed once with HBSS, and 90 μl of HBSS was added to the wells. To measure cell surface expression, a 1:20 dilution of furimazine live cell substrate and 1:20 LgBiT mix (final dilution = 1:200) were prepared in HBSS and 10 μl was added. The plate was incubated for 30 min to allow for HiBiT–LgBiT complementation, and then luminescence was measured on a TECAN Spark multimode microplate reader between 460 and 500 nm (integration time: 200 ms).
Figure S4. BRET time-course of compound 11 at the FZD5-DEP-Clamp in agonist mode and HiBiT-FZD5/6 surface expression upon compound exposure. (A) Shown is the BRET time-course recorded upon addition of 30 µM compound 11 or vehicle (DMSO). Experiments were performed in HEK293A cells stably expressing the FZD5-DEP-Clamp sensor. […] The timepoint of ligand addition is indicated by a black arrow. (B, C) Impact of compound 11 on FZD cell surface expression. The cell surface pool of transiently-transfected HiBiT-FZD5 (B) and HiBiT-FZD6 (C) was assessed by addition of recombinant LgBiT in combination with detection of NanoBiT luminescence. […]

[2] = system: LGR5 gene expression in primary human hepatocyte (PHH) spheroids; assay: WNT-3A-induced LGR5 gene expression in primary human hepatocyte spheroids; type: cell-based; settings: 10 μM compound, 48 h, coaddition with WNT-3A
Method: Cryopreserved adult PHHs were purchased from BioIVT and cultured as 3D spheroids as previously described ([35]). Briefly, PHHs were seeded in 96-well ultra-low attachment plates (Corning) at a density of 1500 cells/well in William’s E medium (Gibco) supplemented with insulin, transferrin, and selenium (Life Technologies), 100 nM dexamethasone (Sigma), and 10% fetal bovine serum (Cytiva). PHHs were treated from the start of the culture with vehicle control (dimethyl sulfoxide [DMSO]), recombinant WNT-3A, and 10 μM compound 11 for 48 h, as indicated. […]
RNA from 24 hepatocyte spheroids per condition was isolated using Qiazol lysis reagent (QIAGEN). For expression profiling of target genes by quantitative PCR, complementary DNA synthesis was carried out using SuperScript III reverse transcriptase (Invitrogen), and expression was evaluated using Taqman probes (Table S6) according to the supplier’s instructions in a 7500 Fast Real-Time PCR system (Applied Biosystems). Gene expression was quantified using the ΔΔCt method (normalized to the average of the vehicle control from all three experiments).
For the WNT target gene analysis in PHH-derived spheroids, ΔΔCt values were calculated by normalization to the averaged vehicle control from three independent experiments.

[3] = biological target: T3, firefly luciferase (Fluc) (Photinus pyralis, UniProt P08659); assay: Fluc counter assay (CMV-driven recombinant Fluc in HEK293 cells); type: cell-based; settings: counter assay for readout interference
T3 construct: expressed in transfected cells; host or cells: HEK293 cells
Method: Figure S3. […] Experiments were performed in HEK293 cells.

T3 sequence (P08659 whole entry): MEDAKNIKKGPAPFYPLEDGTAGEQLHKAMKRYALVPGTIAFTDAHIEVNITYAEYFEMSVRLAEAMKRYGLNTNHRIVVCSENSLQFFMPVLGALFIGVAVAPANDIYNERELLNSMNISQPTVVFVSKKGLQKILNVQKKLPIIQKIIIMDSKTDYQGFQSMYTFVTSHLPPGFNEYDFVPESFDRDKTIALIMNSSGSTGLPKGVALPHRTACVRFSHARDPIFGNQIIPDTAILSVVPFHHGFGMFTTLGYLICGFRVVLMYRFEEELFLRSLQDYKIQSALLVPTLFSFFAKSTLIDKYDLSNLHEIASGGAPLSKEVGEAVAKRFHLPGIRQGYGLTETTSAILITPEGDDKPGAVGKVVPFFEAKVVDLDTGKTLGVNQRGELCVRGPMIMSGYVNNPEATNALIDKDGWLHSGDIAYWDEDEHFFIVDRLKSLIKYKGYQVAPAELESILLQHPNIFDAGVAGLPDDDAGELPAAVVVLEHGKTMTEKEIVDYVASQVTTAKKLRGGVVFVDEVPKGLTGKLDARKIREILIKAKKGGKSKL
T2 sequence (Q13467 27-585): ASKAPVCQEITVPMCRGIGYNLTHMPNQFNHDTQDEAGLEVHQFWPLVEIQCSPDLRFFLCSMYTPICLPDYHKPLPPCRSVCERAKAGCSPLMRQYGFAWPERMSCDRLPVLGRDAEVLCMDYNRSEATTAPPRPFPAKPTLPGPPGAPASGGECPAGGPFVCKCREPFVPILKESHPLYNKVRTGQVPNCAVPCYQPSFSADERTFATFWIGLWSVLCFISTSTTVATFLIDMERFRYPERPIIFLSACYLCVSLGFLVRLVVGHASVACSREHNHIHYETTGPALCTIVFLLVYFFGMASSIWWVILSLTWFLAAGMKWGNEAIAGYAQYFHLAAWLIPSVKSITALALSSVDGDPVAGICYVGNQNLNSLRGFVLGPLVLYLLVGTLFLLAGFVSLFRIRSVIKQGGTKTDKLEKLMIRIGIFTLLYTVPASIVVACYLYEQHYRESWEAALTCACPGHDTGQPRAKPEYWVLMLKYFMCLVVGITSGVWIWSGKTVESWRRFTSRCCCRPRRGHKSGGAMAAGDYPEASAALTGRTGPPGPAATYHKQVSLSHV
T1 sequence (Q13467 27-585): as above

CC(=O)Nc1cccc(C(=O)NC2CCC(N(Cc3cccc(-c4ccncc4)c3)C(=O)c3sc4ccccc4c3Cl)CC2)c1 (centres unmarked) [compound 11, N-((1r,4r)-4-(3-Acetamidobenzamido)cyclohexyl)-3-chloro-N-(3-(pyridin-4-yl)benzyl)benzo[b]thiophene-2-carboxamide]
IC50 (Nluc-FZD5): 0.759 µM
Subtype preference in TOPFlash assays [1]: did not show a subtype preference
Effect on surface levels of HiBiT-FZD5 (HiBiT-FZD5): had no effect
Effect on WNT-3A-induced LGR5 mRNA expression [2]: returning mRNA expression almost back to vehicle levels
Interference with Fluc bioluminescence [3]: interferes with Fluc bioluminescence
